Results taken from ChEMBL document CHEMBL5678818, “Discovery of potent SOS1 inhibitors that block RAS activation via disruption of the RAS-SOS1 interaction” (Proc Natl Acad Sci U S A, 2019).

Assays:
[1] = target: T1, Son of sevenless homolog 1 (Homo sapiens, UniProt Q07889); assay: Inhibition of N-terminal His10-tagged wild-type recombinant human SOS1 catalytic domain (564 to 1049 residues) expressed in Escherichia coli assessed as reduction in KRAS G12C mutant activation preincubated for 2 mins with KRAS followed by SOS1 addition measured after 20 mins in presence of EDA-GTP-DY-647P1 by HTRF analysis
[2] = target: T2, Son of sevenless homolog 1 (Homo sapiens, UniProt Q07889); assay: Inhibition of N-terminal His10-tagged wild-type recombinant human SOS1 catalytic domain (564 to 1049 residues) expressed in Escherichia coli assessed as reduction in wild-type KRAS activation preincubated for 10 mins with KRAS followed by SOS1 addition measured after 30 mins in presence of EDA-GTP-DY-647P1 by HTRF analysis
T2 sequence (Q07889 whole entry): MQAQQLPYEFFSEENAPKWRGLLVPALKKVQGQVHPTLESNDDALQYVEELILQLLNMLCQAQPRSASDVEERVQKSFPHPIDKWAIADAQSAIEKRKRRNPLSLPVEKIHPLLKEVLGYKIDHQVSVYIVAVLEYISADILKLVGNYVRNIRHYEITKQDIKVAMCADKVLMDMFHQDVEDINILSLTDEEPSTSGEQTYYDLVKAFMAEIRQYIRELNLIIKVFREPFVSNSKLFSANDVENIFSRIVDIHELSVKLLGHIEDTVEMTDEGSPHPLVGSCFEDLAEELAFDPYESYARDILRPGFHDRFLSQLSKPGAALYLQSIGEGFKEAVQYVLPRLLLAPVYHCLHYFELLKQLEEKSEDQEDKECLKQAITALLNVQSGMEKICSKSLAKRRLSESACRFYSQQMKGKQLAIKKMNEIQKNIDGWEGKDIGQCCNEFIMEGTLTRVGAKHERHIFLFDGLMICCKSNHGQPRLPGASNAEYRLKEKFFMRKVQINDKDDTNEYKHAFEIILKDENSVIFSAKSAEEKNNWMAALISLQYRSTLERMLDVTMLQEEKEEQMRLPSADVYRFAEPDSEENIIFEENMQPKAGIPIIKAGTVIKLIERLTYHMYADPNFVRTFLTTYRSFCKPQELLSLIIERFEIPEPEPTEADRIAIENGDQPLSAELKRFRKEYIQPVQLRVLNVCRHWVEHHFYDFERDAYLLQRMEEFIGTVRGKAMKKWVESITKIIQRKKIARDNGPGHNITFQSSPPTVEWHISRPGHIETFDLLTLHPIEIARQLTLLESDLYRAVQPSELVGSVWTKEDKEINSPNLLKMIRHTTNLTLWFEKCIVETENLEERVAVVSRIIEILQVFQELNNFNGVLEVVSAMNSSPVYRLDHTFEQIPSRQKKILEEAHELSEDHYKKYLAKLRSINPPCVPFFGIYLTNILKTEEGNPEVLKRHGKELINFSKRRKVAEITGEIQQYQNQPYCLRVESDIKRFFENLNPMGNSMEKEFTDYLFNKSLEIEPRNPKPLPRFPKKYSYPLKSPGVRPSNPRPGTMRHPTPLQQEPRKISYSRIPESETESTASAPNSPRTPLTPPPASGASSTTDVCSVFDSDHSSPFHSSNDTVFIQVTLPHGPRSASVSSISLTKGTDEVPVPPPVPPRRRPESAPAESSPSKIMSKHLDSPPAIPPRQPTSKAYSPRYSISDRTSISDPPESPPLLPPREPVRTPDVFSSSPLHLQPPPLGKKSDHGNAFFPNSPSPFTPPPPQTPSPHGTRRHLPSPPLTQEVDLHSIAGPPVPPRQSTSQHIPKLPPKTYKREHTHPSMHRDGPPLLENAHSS

[3] = target: T2, Son of sevenless homolog 1; assay: Inhibition of SOS1 in human K562 cells assessed as reduction in pERK level incubated for 60 mins by HTRF analysis; type: cell-based
[4] = target: SOS1-KRAS (Homo sapiens, UniProt Q07889); assay: Inhibition of N-terminal GST-tagged recombinant human KRAS G12C mutant (1 to 169 residues) expressed in Escherichia coli/N-terminal His10-tagged wild-type recombinant human SOS1 catalytic domain (564 to 1049 residues) expressed in Escherichia coli protein-protein interaction preincubated for 2 mins with KRAS followed by SOS1 addition measured after 60 mins in presence of anti-6His-XL665 by HTRF analysis
[5] = target: GTPase KRas (Homo sapiens, UniProt P01116, G12C); assay: Inhibition of N-terminal GST-tagged recombinant human KRAS G12C mutant (1 to 169 residues) expressed in Escherichia coli assessed as reduction in intrinsic GTP exchange preincubated for 10 mins with KRAS followed by SOS1 addition measured after 30 mins in presence of EDA-GTP-DY-647P1 by HTRF analysis
[6] = target: T3, Guanine nucleotide exchange factor DBS (Homo sapiens, UniProt O15068); assay: Inhibition of human DBS assessed as reduction in CDC42 activation preincubated for 1 min with CDC42 followed by DBS addition measured after 20 mins in presence of EDA-GTP-DY-647P1 by HTRF analysis
T3 sequence (O15068 whole entry): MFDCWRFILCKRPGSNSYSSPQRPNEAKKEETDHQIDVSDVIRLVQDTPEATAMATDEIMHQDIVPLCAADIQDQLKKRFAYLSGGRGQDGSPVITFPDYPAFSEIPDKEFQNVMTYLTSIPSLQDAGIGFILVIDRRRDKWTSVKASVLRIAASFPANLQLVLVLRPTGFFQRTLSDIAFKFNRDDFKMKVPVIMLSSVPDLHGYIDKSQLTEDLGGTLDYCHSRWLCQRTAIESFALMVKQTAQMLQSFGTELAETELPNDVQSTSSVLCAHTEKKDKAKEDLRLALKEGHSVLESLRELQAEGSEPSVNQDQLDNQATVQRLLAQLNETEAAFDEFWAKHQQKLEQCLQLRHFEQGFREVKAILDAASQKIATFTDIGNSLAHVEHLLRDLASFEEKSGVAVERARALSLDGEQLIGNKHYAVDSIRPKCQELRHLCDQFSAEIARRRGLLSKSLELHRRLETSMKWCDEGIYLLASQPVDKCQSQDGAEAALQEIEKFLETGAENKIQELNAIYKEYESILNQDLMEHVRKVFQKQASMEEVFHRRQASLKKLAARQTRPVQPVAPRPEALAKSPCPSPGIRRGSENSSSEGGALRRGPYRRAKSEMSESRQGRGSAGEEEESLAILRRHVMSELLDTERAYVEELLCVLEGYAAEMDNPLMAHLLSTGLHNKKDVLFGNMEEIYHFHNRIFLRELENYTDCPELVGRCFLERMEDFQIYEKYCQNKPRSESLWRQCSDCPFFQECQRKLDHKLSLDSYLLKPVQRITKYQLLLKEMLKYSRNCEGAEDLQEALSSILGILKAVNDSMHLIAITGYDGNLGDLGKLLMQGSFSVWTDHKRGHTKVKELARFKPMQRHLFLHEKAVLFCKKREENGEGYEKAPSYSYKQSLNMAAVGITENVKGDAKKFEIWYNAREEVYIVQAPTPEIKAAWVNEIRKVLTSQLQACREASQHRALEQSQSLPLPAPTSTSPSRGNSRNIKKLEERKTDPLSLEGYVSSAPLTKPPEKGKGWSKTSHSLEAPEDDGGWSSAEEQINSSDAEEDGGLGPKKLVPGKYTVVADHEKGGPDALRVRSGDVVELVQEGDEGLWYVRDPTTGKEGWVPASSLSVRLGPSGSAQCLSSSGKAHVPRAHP

[7] = target: T2, Son of sevenless homolog 1; assay: Inhibition of SOS1 in human MOLM-13 cells assessed as reduction in pERK level incubated for 60 mins by HTRF analysis; type: cell-based
[8] = target: T2, Son of sevenless homolog 1; assay: Inhibition of SOS1 in human HeLa cells assessed as reduction in RAS activation pretreated for 30 mins followed by EGF stimulation for 3 mins by G-LISA analysis; type: cell-based
[9] = target: Epidermal growth factor receptor (Homo sapiens, UniProt P00533); assay: Inhibition of human EGFR using biotin-aminohexyl-AEEEEYFELVAKKK as substrate preincubated for 15 mins followed by substrate/ATP addition measured after 20 mins by FRET assay
[10] = target: GTPase KRas/RAF1 (Homo sapiens, UniProt P01116+P04049); assay: Inhibition of N-terminal His10-tagged wild-type recombinant human KRAS (1 to 169 residues) expressed in Escherichia coli/N-terminal GST-tagged recombinant human CRAF RBD (51 to 131 residues) expressed in Escherichia coli protein-protein interaction preincubated for 30 mins with KRAS followed by CRAF RBD addition measured after 60 mins in presence of anti-6His-XL665/GTP by HTRF analysis
[11] = target: T2, Son of sevenless homolog 1; assay: Inhibition of SOS1 in human Calu-1 cells assessed as reduction in RAS activation pretreated for 30 mins followed by EGF stimulation for 3 mins by G-LISA analysis; type: cell-based
[12] = test system: Calu-1; assay: Antiproliferative activity against human Calu-1 cells assessed as inhibition of cell viability incubated for 72 hrs by Cell Titer Glo assay; type: functional, cell-based; details: Calu-1, 72 h
[13] = target: Son of sevenless homolog 2 (Homo sapiens, UniProt Q07890); assay: Inhibition of N-terminal His10-tagged wild-type recombinant human SOS2 catalytic domain (564 to 1043 residues) expressed in Escherichia coli assessed as reduction in KRAS G12C mutant activation preincubated for 10 mins with KRAS followed by SOS2 addition measured after 30 mins in presence of EDA-GTP-DY-647P1 by HTRF analysis
[14] = target: T1, Son of sevenless homolog 1; assay: Inhibition of N-terminal His10-tagged wild-type recombinant human SOS1 catalytic domain (564 to 1049 residues) expressed in Escherichia coli assessed as reduction in KRAS G12C mutant activation preincubated for 10 mins with KRAS followed by SOS1 addition measured after 30 mins in presence of EDA-GTP-DY-647P1 by HTRF analysis
[15] = target: T2, Son of sevenless homolog 1; assay: Inhibition of SOS1 in human Calu-1 cells assessed as reduction in pERK level incubated for 24 hrs by HTRF analysis; type: cell-based

`COc1cc2nc(C)nc(NC(C)c3ccc(-c4cnc5n4CCC5)s3)c2cc1OC` (stereo not given) was tested, and the IC50 [1] was 650 nM, the IC50 [2] was 550 nM and the IC50 [3] was 1160 nM. For the same molecule, the IC50 [4] was 400 nM, the IC50 [5] was > 20000 nM and the IC50 [6] was > 20000 nM. The IC50 [7] was 450 nM, the IC50 [8] was 5340 nM and the IC50 [9] was > 20000 nM. The IC50 [10] was > 20000 nM, the IC50 [11] was 2000 nM and the IC50 [12] was 870 nM. The IC50 [13] was > 20000 nM, the IC50 [14] was 930 nM and the IC50 [15] was 4460 nM.
